Reference: patent publication US20250179057A1, “MEK IMMUNE ONCOLOGY INHIBITORS AND THERAPEUTIC USES THEREOF” (Immuneering Corporation, priority 2022, published 2025)
Counter-ions that a name gives are not always drawn. Like-named read-outs stand apart in the source and are kept apart here.

Tests used:
[1] = Plasma stability, cynomolgus monkey plasma (K2-EDTA); type: in vitro ADME; conditions: for T1/2 / % Remaining at T120: 2 μM, anti-coagulant K2-EDTA; for % Remaining at T120: 120 min; for half-life at 2 μM: plasma (K2EDTA), pH 7.4, anti-coagulant K2-EDTA
Description: Individual stock solutions of propantheline and lovastatin were prepared at 10 mM in DMSO and were further diluted to 2 mM with DMSO.
Frozen matrices (Balb/c mouse, Wistar Han rat, Beagle dog, and human plasma containing K2EDTA as anti-coagulant) were thawed and centrifuged at 3100 rpm for 10 minutes at 4° C. to remove particulates. The lipid layer was then removed, and the supernatant was transferred to a new tube without disturbing the pellet. After the matrices were incubated at 37° C. for at least 10 minutes, the pH of each matrix was adjusted to pH 7.4, using 10% phosphoric acid or 1N sodium hydroxide as necessary. Test and control article stock solutions were spiked (2 μL) into matrix (1.998 mL) and mixed to final assay concentration of […]. Duplicate 30-μL aliquots of spiked plasma were transferred to matrix tubes in 96-well plate immediately after spiking for timepoints of 0, 30, 60, 120, 240, and 360 minutes. These tubes were then incubated at 37° C. with shaking and at each timepoint, the corresponding tubes containing samples were quenched with 180 μL of cold acetonitrile containing the internal standards. The quenched samples were vortex-mixed briefly and stored refrigerated. After the final time point (360 minutes), the plates with all quenched samples were vortex-mixed for 10 minutes and then centrifuged at 3100 rpm for 10 minutes at 4° C. to sediment the precipitated protein. The supernatant (50 μL) was transferred to a clean 96-well plate and diluted with 100 μL of water. The plates were stored refrigerated until analysis.
Data Analysis: Peak area ratios for IS-normalized test article and control article counts were used to calculate the percent remaining relative to the time zero (T0) value. As appropriate, results were plotted and further analyzed to calculate half-life (T1/2) values.
Mean peak area ratios were used to calculate the % remaining relative to the T0 value:
In this study, human, cynomolgus monkey, beagle dog, wistar hannover rat, and balb/c plasma stability was determined. Table 28 describes the results of the human plasma stability at 2 μM concentration and anti-coagulant K2-EDTA from 10 to 120 min. Table 29 describes the results of the cynomolgus monkey plasma stability at 2 μM concentration and anti-coagulant K2-EDTA. Table 30 describes the results of the beagle dog plasma stability at 2 μM concentration and anti-coagulant K2-EDTA. Table 31 describes the results of the wistar hannover rat plasma stability at 2 μM concentration and anti-coagulant K2-EDTA. Table 32 describes the results of the balb/c plasma stability at 2 μM concentration and anti-coagulant K2-EDTA.

[2] = system: phospho-ERK in A549 (KRAS G12S) cells; assay: Cell-based pERK (pERK:tERK) in A549 cells; parameters: A549-pERK 10 uM, 2 h: unit not given here; conditions: for A549-pERK (10 nM, 2 h): phospho- to total protein ratio normalized to DMSO control (Table 9); for IC50: A549, 12-point dose; for pERK:tERK (10 nM 2 h A549): Phospho-ERK Screen in A549 (KRAS G12S), head 10 nM 2 h, title 10 μM for 2 hours; for activity at 0.01 µM: A549, 2 h, read-out: A549-pERK (10 nM, 2 h)
Procedure, shortened: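 Readout was pERK versus tERK by Western blot with IRDye-labelled secondary antibodies, imaged and quantified on a LI-COR Odyssey. Lysates were loaded at 1 mg/mL protein after Bradford estimation.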

[3] = Hepatocyte stability, human; type: in vitro ADME; conditions: 0.5 million cells/ml; for half-life at 2 μM: human hepatocytes, 120 min; for CLint scaled at 2 μM: human, hepatocytes
Description: In this study, human, cynomolgus monkey, beagle dog, wistar hannover rat, and balb/c mouse hepatocyle stability was determined.

[4] = Caco-2 bidirectional permeability (absorption & efflux); conditions: human
[5] = read-out: CLint (L/hr/kg) (converted)

Compound	T1/2 [1]	% Remaining at T120 [1]	A549-pERK (10 nM, 2 h) ([2]; 2 h)	A549 pERK:tERK ratio [10 nM; 2 hr] [2]	A549-pERK 10 uM, 2 h ([2]; 10 uM, 2 h, phospho- to total protein ratio normalized to DMSO control)	IC50 [2]	pERK:tERK (10 nM 2 h A549) [2]	half-life at 2 μM [1]	activity at 0.01 µM ([2]; Homo sapiens)	half-life at 2 μM [3]	CLint scaled at 2 μM [3, 5]	CLint scaled at 2 μM ([3]; read-out: CLint (mL/min/kg))	Papp A→B at 2 h, 10 μM [4]	Papp B→A at 2 h, 10 μM [4]	efflux ratio at 2 h, 10 μM [4]	IC50 ([2]; Homo sapiens)
CNS(=O)(=O)Nc1cccc(Cc2c(CN(C)C)c3ccc(OC(=O)N(C)C)cc3oc2=O)c1F [Compound 9]	>2 h	110.4%	63.0	0.62	1.205 (mean, n = 2)	19.8 nM	65 (n = 27)									
CNS(=O)(=O)Nc1cccc(Cc2c(CN(C)C)c3cc(F)c(OC(=O)N(C)C)cc3oc2=O)c1F [Compound 25]	>2 h	107.3%	66.2				66 (n = 2)									
CCS(=O)(=O)Nc1cccc(Cc2c(CN(C)C)c3ccc(OC(=O)N(C)C)cc3oc2=O)c1F [Compound 120]	>2 h	107.3%	77.2													
CNS(=O)(=O)Nc1nccc(Cc2c(CN(C)C)c3ccc(OC(=O)N(C)C)cc3oc2=O)c1F [Compound 124]	21.32 h	95.9%	94.6													
CNS(=O)(=O)Nc1cccc(Cc2c(CN3CCNCC3)c3cc(F)c(OC(=O)N(C)C)cc3oc2=O)c1F [Compound 134]	15.8 h	93.0%	33.1													
CCCS(=O)(=O)Nc1cccc(Cc2c(CN3CCNCC3)c3cc(Cl)c(OC(=O)N(C)C)cc3oc2=O)c1F [Compound 167]	>2 h	117.3%					27 (n = 2)									
CCN(C)Cc1c(Cc2cccc(NS(=O)(=O)NC)c2F)c(=O)oc2cc(OC(=O)N(C)C)c(F)cc12 [Compound 238]		101.1%						> 2 h	68.4%	1.07 h	3.51 L/h/kg	3.5 L/h/kg	14.2 ×10⁻⁶ cm/s	13.5 ×10⁻⁶ cm/s	0.956	
CCN(C)Cc1c(Cc2cccc(NS(=O)(=O)NC)c2Cl)c(=O)oc2cc(OC(=O)N(C)C)ccc12 [Compound 245, 3-(2-chloro-3-((N-methylsulfamoyl)amino)benzyl)-4-((ethyl(methyl)amino)methyl)-2-oxo-2H-chromen-7-yl dimethylcarbamate]		96.5%					69	23 h	68.8%	0.703 h	5.32 L/h/kg	5.32 L/h/kg	11.9 ×10⁻⁶ cm/s	6.87 ×10⁻⁶ cm/s	0.578	
CNS(=O)(=O)Nc1cccc(Cc2c(CN3CCNCC3)c3ccc(OC(=O)N(C)C)cc3oc2=O)c1Cl [Compound 246, 3-(2-chloro-3-((N-methylsulfamoyl)amino)benzyl)-2-oxo-4-(piperazin-1-ylmethyl)-2H-chromen-7-yl dimethylcarbamate hydrochloride]		104.5%					19	> 2 h	19%	28.8 h	0.13 L/h/kg	0.13 L/h/kg	4.16 ×10⁻⁶ cm/s	6.99 ×10⁻⁶ cm/s	1.68	
CNS(=O)(=O)Nc1cccc(Cc2c(CN3CCNCC3)c3cc(Cl)c(OC(=O)N(C)C)cc3oc2=O)c1Cl [Compound 256, 6-chloro-3-(2-chloro-3-((N-methylsulfamoyl)amino)benzyl)-2-oxo-4-(piperazin-1-ylmethyl)-2H-chromen-7-yl dimethylcarbamate hydrochloride]		95.0%					14	28.5 h		15.4 h	0.242 L/h/kg	0.242 L/h/kg	3.59 ×10⁻⁶ cm/s	13.4 ×10⁻⁶ cm/s	3.73	
CCS(=O)(=O)Nc1cccc(Cc2c(CN3CCNCC3)c3cc(Cl)c(OC(=O)N(C)C)cc3oc2=O)c1Cl [Compound 257, 6-chloro-3-(2-chloro-3-(ethylsulfonamido)benzyl)-2-oxo-4-(piperazin-1-ylmethyl)-2H-chromen-7-yl dimethylcarbamate hydrochloride]		98.0%					17	20.1 h		12 h	0.312 L/h/kg	0.313 L/h/kg	4.08 ×10⁻⁶ cm/s	22.1 ×10⁻⁶ cm/s	5.41	
CNS(=O)(=O)Nc1cccc(Cc2c(CN(C)C)c3ccc(OC(=O)N(C)C)cc3oc2=O)c1Cl [Compound 274, 3-(2-chloro-3-((N-methylsulfamoyl)amino)benzyl)-4-((dimethylamino)methyl)-2-oxo-2H-chromen-7-yl dimethylcarbamate]		104.5%						> 2 h		1.87 h	2.01 L/h/kg	2.01 L/h/kg	16.8 ×10⁻⁶ cm/s	8.95 ×10⁻⁶ cm/s	0.533	
Cn1cnc2c(F)c(Nc3ccc(Br)cc3Cl)c(C(=O)NOCCO)cc21 [Reference-1, Selumetinib]				0.56												7.2 nM
CNS(=O)(=O)Nc1nccc(Cc2c(C)c3ccc(Oc4ncccn4)cc3oc2=O)c1F [Reference-2, reference compound]																7.2 nM
